According to PubChem BioAssay (NCI):
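48-hour exposure; five concentrations; linearly interpolated endpoints. TGI is the concentration that stops growth completely.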

Legend:
Test in all cases: growth of human tumour cells (NCI), 48 h
MDA-N = tested on: MDA-N
TK-10 renal = tested on: TK-10 renal
SW-620 colon = tested on: SW-620 colon
UACC-62 melanoma = tested on: UACC-62 melanoma
NCI-H522 lung = tested on: NCI-H522 lung
CCRF-CEM leukemia = tested on: CCRF-CEM leukemia
SNB-19 CNS = tested on: SNB-19 CNS
SF-268 CNS = tested on: SF-268 CNS
T-47D breast = tested on: T-47D breast
SF-539 CNS = tested on: SF-539 CNS
MDA-MB-435 = tested on: MDA-MB-435
COLO 205 colon = tested on: COLO 205 colon
RXF 393 renal = tested on: RXF 393 renal
MOLT-4 leukemia = tested on: MOLT-4 leukemia
MDA-MB-231 breast = tested on: MDA-MB-231 breast
SK-MEL-2 melanoma = tested on: SK-MEL-2 melanoma
HOP-62 NSCLC = tested on: HOP-62 NSCLC

| SMILES | TGI (MDA-N) [µM] | TGI (TK-10 renal) [µM] | TGI (SW-620 colon) [µM] | TGI (UACC-62 melanoma) [µM] | TGI (NCI-H522 lung) [µM] | TGI (CCRF-CEM leukemia) [µM] | TGI (SNB-19 CNS) [µM] | TGI (SF-268 CNS) [µM] | TGI (T-47D breast) [µM] | TGI (SF-539 CNS) [µM] | TGI (MDA-MB-435) [µM] | TGI (COLO 205 colon) [µM] | TGI (RXF 393 renal) [µM] | TGI (MOLT-4 leukemia) [µM] | TGI (MDA-MB-231 breast) [µM] | TGI (SK-MEL-2 melanoma) [µM] | TGI (HOP-62 NSCLC) [µM] |
| --- | --- | --- | --- | --- | --- | --- | --- | --- | --- | --- | --- | --- | --- | --- | --- | --- | --- |
| N#CC12C(=O)NC(=O)C1(C#N)C1C=CC2CC1 (configuration not stated) | > 100 | > 100 | > 100 | > 100 | > 100 | > 100 | > 100 | > 100 | > 100 | > 100 | > 100 | > 100 | > 100 | > 100 |  |  |  |
| CC(=O)Nc1ccc2c3c(cc(O)c2c1)N(C(=O)CCCC(=O)N1CC(CCl)c2c1cc(O)c1cc(NC(C)=O)ccc21)CC3CCl (configuration not stated) |  | 0.057 | > 100 | 0.0173 | 0.0212 | < 0.01 |  |  | < 0.01 | 0.0964 | 0.019 | 0.0215 | < 0.01 |  | < 0.01 | < 0.0152 | 0.0596 |
| CC1=C(C#N)C(=C(C#N)C#N)OC1(C)Cc1ccccc1 (configuration not stated) |  | > 100 | > 100 | 50.4 | 36.8 |  | > 100 | > 100 | 85.6 | > 100 | > 100 | 43 | 37.6 | 67.3 | > 100 | > 100 | > 100 |
| O=C(Nc1ccccc1)c1cc(S(=O)(=O)Nc2n[nH]c(=O)n2-c2ccccc2)c(S)cc1Cl | > 100 | > 100 | > 100 | > 100 | > 100 |  | > 100 | > 100 | > 100 | > 100 | > 100 | > 100 | > 100 | > 100 | > 100 | > 100 |  |
| Nc1nc(Cl)cc(NCC2(O)CCC2)n1 | > 100 | > 100 | > 100 | > 100 | > 100 |  |  | > 100 | > 100 | > 100 | > 100 | > 100 | > 100 | > 100 | > 100 | > 100 | > 100 |
| OC1(C(Sc2cc(C(F)(F)F)cc(C(F)(F)F)c2)Sc2cc(C(F)(F)F)cc(C(F)(F)F)c2)C=CCCC1 (configuration not stated) | 8.16 | 3.8 | 7.74 | 7.79 | 5.75 | 6.39 | 8.2 | 8.81 | 4.26 |  | 7.03 | 5.59 | 4.77 | 5.08 |  |  | 11.4 |
| CC1CC(N)=C(C#N)C1(C#N)C#N (configuration not stated) | > 100 | > 100 | > 100 | > 100 | > 100 |  | > 100 | > 100 | > 100 | > 100 | > 100 | > 100 | > 100 | > 100 | > 100 | > 100 |  |
| N#CC12C(=O)N3C(=NC(c4ccco4)NC3c3ccco3)C1(C#N)C(c1ccco1)NC1=C2CCCC1 (configuration not stated) | > 100 | > 100 | > 100 | > 100 | > 100 |  | > 100 | > 100 | > 100 |  | > 100 | > 100 | > 100 | > 100 | > 100 | > 100 | > 100 |
| CC(C)[N+]([O-])(CCCNc1c2ccccc2nc2cccc([N+](=O)[O-])c12)C(C)C | 0.137 | 1.4 | 4.9 | 0.356 | 0.147 | 1.98 | 5.17 | 3.14 |  | 0.24 | 0.0758 | 0.0577 | 0.403 |  | 0.441 | 1.24 | 1.77 |
| CC1=NN(c2nc(N)nc(CN3CCOCC3)n2)C(C)(C)C1 |  | > 100 | > 100 | > 100 | 29.1 | 90.8 | > 100 | > 100 | > 100 | > 100 | > 100 | > 100 | > 100 | > 100 | > 100 | > 100 | > 100 |
| Cc1ccc(CC(Cc2ccccc2C)C(=O)O)c(C(=O)O)c1 (configuration not stated) | > 100 | > 100 | > 100 |  | > 100 | > 100 | > 100 | > 100 |  | > 100 | > 100 | > 100 | > 100 | > 100 | > 100 | > 100 | > 100 |
| CSC1=N/C(=C\c2ccc(Cl)cc2)C(=O)N1CN1CCCCC1 | > 100 | > 100 | > 100 | > 100 | > 100 | > 100 |  | > 100 |  |  | > 100 | > 100 |  | > 100 | > 100 | > 100 | > 100 |
| O=C(Nc1ccc(C(F)(F)F)cc1)NC(F)(F)F | > 100 | > 100 | > 100 |  |  | > 100 | > 100 | > 100 | > 100 | > 100 | > 100 | > 100 | > 100 | > 100 |  | > 100 |  |
| O=c1oc2ccc3ccccc3c2cc1-c1nnc(Nc2ccccc2)s1 |  | 32.1 |  | 53.9 | 69.3 |  | 65.4 | > 100 | > 100 |  | > 100 |  | 29.7 | > 100 | 35.1 | 34.7 |  |
| COc1cc(C2C(Cl)C(=O)N2NC(=O)Cc2ccccc2)cc(Br)c1O (configuration not stated) |  | > 100 | > 100 | > 100 | > 100 | > 100 | > 100 | > 100 |  |  |  | > 100 | > 100 | > 100 |  | > 100 | > 100 |
| Cc1ccc(C)n1-c1ccccc1C1C=Cn2c(=O)nnc3c(OC(C)C)c(OC(C)C)c(O)c1c32 (configuration not stated) | > 100 | > 100 | 42.3 | > 100 | 49.6 | > 100 | > 100 | > 100 |  | > 100 | 58.5 | 27.7 | 77.3 | 56.5 | > 100 | > 100 | > 100 |
